Experimental findings from PubChem BioAssay (NCI) are described below.

Test systems include NCI-H23 lung; OVCAR-4 ovarian; T-47D breast; ACHN renal; HCT-116 colon; DU-145 prostate; SK-MEL-2 melanoma; SF-539 CNS; SNB-75 CNS; HCC-2998 colon.
What all share (test): NCI anticancer screen, dose series, 48 h

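Values below derive from 48-hour exposures of cells grown in 96-well plates, with endpoints linearly interpolated between the two concentrations bracketing the appropriate inhibition level. Abbreviation: GI50, concentration required for 50% inhibition of growth. TGI marks complete inhibition of growth.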

For the molecule `O=C1C(Cl)=C(Nc2cccc(O)c2)C(=O)N1c1cccc(Cl)c1Cl`, the GI50 in the experiment with NCI-H23 lung is 14.4 µM; in the experiment on OVCAR-4 ovarian, 15.6 µM; in the experiment on T-47D breast it was 16.8 µM; in the experiment on ACHN renal, 19.1 µM; in the experiment with HCT-116 colon, 11.2 µM; with DU-145 prostate, 22.7 µM. Besides, in the experiment on SK-MEL-2 melanoma, the GI50 was 15.2 µM. For the same molecule, the TGI is 34.6 µM with NCI-H23 lung; 40.5 µM in the experiment on OVCAR-4 ovarian; 86.3 µM in the experiment with T-47D breast; above 100 µM with ACHN renal; 23.2 µM in the experiment on HCT-116 colon; 48 µM in the experiment on DU-145 prostate. For the same molecule, the TGI with SK-MEL-2 melanoma was 35.9 µM.
Turning to `COC(=O)C1C2CCCN2OC1(C)CO` (stereo not drawn), the TGI in the experiment on NCI-H23 lung, with SF-539 CNS, with OVCAR-4 ovarian, in the experiment with T-47D breast, in the experiment with ACHN renal and in the experiment with HCT-116 colon was above 100 µM in each case. In addition, the TGI with SNB-75 CNS, with DU-145 prostate and in the experiment with SK-MEL-2 melanoma was above 100 µM throughout.
Turning to `CCN(CC)CC(O)C1CCC(c2ccccc2)CC1` (stereo not drawn), the TGI was above 100 µM with NCI-H23 lung; 40.2 µM in the experiment with SF-539 CNS; 11.5 µM in the experiment with HCC-2998 colon; above 100 µM with T-47D breast; 57.5 µM in the experiment on ACHN renal; above 100 µM in the experiment with HCT-116 colon. The TGI with SNB-75 CNS was 64.4 µM; in the experiment on DU-145 prostate it was above 100 µM; in the experiment on SK-MEL-2 melanoma, 37.4 µM.
Take `Oc1cc2ccccc2cc1-c1n[nH]c(=S)n1-c1ccc(Cl)cc1`: the GI50 was 20 µM with NCI-H23 lung; 15.3 µM with SF-539 CNS; 40.5 µM with OVCAR-4 ovarian; 31.6 µM in the experiment on T-47D breast; 25.8 µM in the experiment with ACHN renal; 19.3 µM with HCT-116 colon. Also, the GI50 was 28.7 µM in the experiment on SNB-75 CNS, 31.2 µM in the experiment on DU-145 prostate and 12.5 µM in the experiment on SK-MEL-2 melanoma. Moreover, the TGI in the experiment on NCI-H23 lung is 60.3 µM; in the experiment with SF-539 CNS it was 50.8 µM; in the experiment on OVCAR-4 ovarian, above 100 µM; in the experiment on T-47D breast it was above 100 µM; in the experiment with ACHN renal, above 100 µM; with HCT-116 colon it was above 100 µM. The TGI was above 100 µM in the experiment on SNB-75 CNS, above 100 µM in the experiment with DU-145 prostate and 39.3 µM with SK-MEL-2 melanoma.
Consider `COc1ccc(-c2coc3cc(OC)cc(O)c3c2=O)cc1`, for which the TGI with NCI-H23 lung, in the experiment with SF-539 CNS, in the experiment on HCC-2998 colon, in the experiment on OVCAR-4 ovarian, with T-47D breast and with ACHN renal was above 100 µM throughout. The TGI with HCT-116 colon, in the experiment on SNB-75 CNS and in the experiment with DU-145 prostate was above 100 µM throughout.
In the case of `CCCCCCCCCC(CCCC(O)CC(=O)O)OC1OC(COC2OC(C)C(O)C(O)C2O)C(O)C(O)C1OC1OC(CO)C(O)C(O)C1OC1OC(C)C(O)C(O)C1O` (stereo not drawn), the GI50 with NCI-H23 lung, in the experiment with SF-539 CNS, in the experiment on HCC-2998 colon, in the experiment with OVCAR-4 ovarian, with T-47D breast and in the experiment on ACHN renal was above 40 µM each time. For the same molecule, the GI50 with HCT-116 colon, in the experiment on SNB-75 CNS and with DU-145 prostate was above 40 µM throughout. The TGI with NCI-H23 lung, in the experiment with SF-539 CNS, in the experiment on HCC-2998 colon, in the experiment on OVCAR-4 ovarian, in the experiment on T-47D breast and in the experiment on ACHN renal was above 40 µM each time. In addition, the TGI with HCT-116 colon, in the experiment with SNB-75 CNS and in the experiment on DU-145 prostate was above 40 µM each time.
Consider `C=C1C(=O)OC2/C=C(\C)C3OC3/C=C(/C(=O)OC)C(OC(C)=O)C(OC(=O)C(C)(O)C(C)OC(C)=O)C12` (stereo not drawn), for which the TGI in the experiment on NCI-H23 lung came out at 11.2 µM; in the experiment with SF-539 CNS, 5.43 µM; in the experiment on HCC-2998 colon, 14.4 µM; in the experiment with OVCAR-4 ovarian, 12.6 µM; in the experiment on T-47D breast, 36.8 µM; in the experiment on ACHN renal it was 18.2 µM. Moreover, the TGI was determined as 6.14 µM with HCT-116 colon, 10.6 µM with SNB-75 CNS and 20.2 µM in the experiment on SK-MEL-2 melanoma.
In the case of `Cc1nc2cc(N)c(Cl)cc2[nH]1`, the TGI in the experiment with NCI-H23 lung, in the experiment with T-47D breast, in the experiment with ACHN renal, in the experiment with HCT-116 colon, in the experiment with SNB-75 CNS and in the experiment on DU-145 prostate was above 100 µM each time. In addition, in the experiment on SK-MEL-2 melanoma, the TGI was above 100 µM.
Take `CCN1CCN(C(=O)[C@]23CCC(C)(C)C[C@@H]2C2=CC[C@@H]4[C@@]5(C)C/C(=C/c6cccnc6)C(=O)C(C)(C)[C@@H]5CC[C@@]4(C)[C@]2(C)CC3)CC1`: the GI50 was 2.1 µM in the experiment with NCI-H23 lung; 1.62 µM in the experiment with SF-539 CNS; 1.58 µM in the experiment with HCC-2998 colon; 2.17 µM with OVCAR-4 ovarian; 2.61 µM with T-47D breast; 2.6 µM in the experiment on ACHN renal. Further, the GI50 with HCT-116 colon is 1.01 µM; in the experiment with DU-145 prostate, 1.83 µM; with SK-MEL-2 melanoma, 1.93 µM. Also, the TGI in the experiment on NCI-H23 lung was 5.85 µM; in the experiment with SF-539 CNS, 3 µM; with HCC-2998 colon it was 3.12 µM; in the experiment on OVCAR-4 ovarian, 7.85 µM; with T-47D breast, 13.7 µM; with ACHN renal it was 10.5 µM. The results for the TGI in the experiment on HCT-116 colon, in the experiment with DU-145 prostate and in the experiment with SK-MEL-2 melanoma were 2.22 µM, 3.88 µM and 3.96 µM, respectively.
With `C[n+]1ccc(-c2c3nc(c(-c4ccc5c(ccc[n+]5C)c4)c4ccc([nH]4)c(-c4cc[n+](C)cc4)c4nc(c(-c5ccc6c(ccc[n+]6C)c5)c5ccc2[nH]5)C=C4)C=C3)cc1`, the GI50 in the experiment with NCI-H23 lung is above 50 µM; with HCC-2998 colon it was 49.7 µM; in the experiment on OVCAR-4 ovarian it was 27.5 µM; in the experiment with T-47D breast, 12.4 µM; in the experiment on ACHN renal it was 27.9 µM; in the experiment with HCT-116 colon, above 50 µM. In addition, the results for the GI50 in the experiment with SNB-75 CNS, with DU-145 prostate and in the experiment with SK-MEL-2 melanoma were 5.09 µM, 30.7 µM and 22.4 µM, respectively. Moreover, the TGI is above 50 µM with NCI-H23 lung; above 50 µM in the experiment on HCC-2998 colon; above 50 µM with OVCAR-4 ovarian; 48.7 µM in the experiment on T-47D breast; above 50 µM in the experiment on ACHN renal; above 50 µM in the experiment on HCT-116 colon. Besides, the values for the TGI in the experiment with SNB-75 CNS, in the experiment with DU-145 prostate and in the experiment on SK-MEL-2 melanoma were 26.1 µM, above 50 µM and above 50 µM, respectively.
For `O=C(O)/C=C\C(=O)Nc1ccc2c(c1)C(=O)c1cc(F)ccc1-2`, the TGI in the experiment with NCI-H23 lung, in the experiment with SF-539 CNS, in the experiment on OVCAR-4 ovarian, in the experiment with T-47D breast, with ACHN renal and in the experiment with HCT-116 colon was above 100 µM throughout. Further, the TGI with SNB-75 CNS, in the experiment on DU-145 prostate and in the experiment on SK-MEL-2 melanoma was above 100 µM throughout.
